Results from US20210369787A1, “ADIPOCYTE MEDIATED DELIVERY OF ANTICANCER THERAPEUTICS” (NORTH CAROLINA STATE UNIVERSITY, priority 2018, published 2021).

How the values were obtained:
FABP4 [1] = biological target: FABP4 (Homo sapiens, UniProt P15090); assay: Fluorescence polarization binding of Dox or pDox to FABP4
Experimental: Fluorescence polarization was measured using QuantaMaster 40 UV/VIS Steady State Spectrofluorometer (Photon Technology International). The dissociation constant (Kd) was calculated for each by fitting the observed polarization ([mP]) to a general equation for two state binding as previously described.2

[2] = system: 3T3-L1 cell-differentiated adipocytes; assay: Lipid accumulation in adipocytes, Oil Red O staining; type: cell-based; settings: for lipid accumulation in adipocytes: added during 3T3-L1 differentiation, oil red staining
Experimental: Lipid accumulation in adipocytes was evaluated by Oil Red 0 staining and quantified by optical density measurement at 540 nm. Preadipocytes were cultured, differentiated, and drug encapsulated in 6-well transwell insert, and co-cultured with 5*10^5 pre-cultured B16F10 or fibroblasts in 6 well plate to determine drug release profiles, which was calculated according to drug amount remained in adipocytes. Concentration of free fatty acid in co-cultured medium was measured using Free Fatty Acid Quantitation Kit (Sigma-Aldrich, catalog no. MAK044). […] Then, 100 μL extraction solution (0.75 M HCl in isopropanol) was added and incubated at −20° C. overnight. The fluorescence of supernatant at 498(excitation)/591(emission) nm was measured after centrifugation at 20000 g for 15 min. The maintenance medium was changed three to four times for animal work.

B16F10 cells [3] = assay: Transwell co-culture of loaded adipocytes with B16F10, MTT; type: cell-based, mouse
Experimental: Cytotoxicity of drug and fatty acid was determined by MTT assay in 96-well plate after 48 h. Tumor cell killing or promoting effect of drug or fatty acid loaded adipocytes was determined in a transwell system where adipocytes were seeded in the 24 well plate and tumor cells grew in the transwell insert. After culturing for 72 h, cell proliferation of cancer cells in the transwell insert was determined by MTT assay.
(§1) For Western blot, flow cytometry, and adipokine profiling (R&D Systems catalog no. ARY013), 6 well transwell system was used with cancer cells cultured in the transwell insert and adipocytes in the bottom. Cells or medium were analyzed after co-culturing for 72 h. To determine the role of FABP4 during the crosstalk, 30 μM BMS309403 was added in the medium to block FABP4. Antibodies used for Western blot included β-actin (catalog no. sc-47778, Santa Cruz), FABP4 (catalog no. 701158, Thermo Fisher), PD-L1 (catalog no. ab205921, Abcam). PE channel was used to determine pDox fluorescence in adipocytes and cancer cells.

B16F10 cells [4] = assay: pDox uptake and transport from adipocytes to B16F10 in transwell, flow cytometry; type: cell-based, mouse
Experimental: as §1

PD-L1 = PD-L1 expression of B16F10 in transwell system, Western blot; type: cell-based, mouse
Experimental: as §1

FABP4 [5] = assay: FABP4 amount in B16F10 cells after transwell co-culture, Western blot; type: cell-based, mouse
Experimental: as §1

Chain of FABP4 (Homo sapiens, UniProt P15090) (P15090 whole entry, species assumed): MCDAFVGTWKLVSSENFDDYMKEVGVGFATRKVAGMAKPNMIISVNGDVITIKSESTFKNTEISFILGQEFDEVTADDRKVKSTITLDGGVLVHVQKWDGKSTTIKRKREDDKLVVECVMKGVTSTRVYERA

| Structure (SMILES) | specific binding to FABP4 (FABP4 [1]) | lipid accumulation in adipocytes [2] | effect on cytotoxicity of pDox from adipocytes to B16F10 cells (B16F10 cells [3]; BMS309403 added to transwell medium (30 μM)) | effect on cell killing by pDox+RA@adipocytes (B16F10 cells [3]; FABP4 inhibitor in transwell medium) | effect on uptake of pDox in adipocytes (B16F10 cells [4]; during pDox absorption) | effect on RA@adipocyte-promoted pDox uptake (B16F10 cells [4]; transwell co-culture) | effect on transportation of pDox from adipocytes to B16F10 cells (B16F10 cells [4]; transwell, flow cytometry) | effect on PD-L1 suppression by RA@adipocytes and CLA@adipocyte (PD-L1) | effect on adipocyte-induced rise of FABP4 in B16F10 cells (FABP4 [5]) | effect on inhibition of lipid droplet formation by Dox and pDox ([2]; RA added during differentiation) |
| --- | --- | --- | --- | --- | --- | --- | --- | --- | --- | --- |
| COc1cccc2c1C(=O)c1c(O)c3c(c(O)c1C2=O)C[C@@](O)(C(=O)CO)C[C@@H]3O[C@H]1C[C@H](N)[C@H](O)[C@H](C)O1 [Dox, doxorubicin] | almost no specific binding | significantly inhibited | – | – | – | – | – | – | – | – |
| CCc1c(-c2ccccc2)c(-c2ccccc2)nn1-c1ccccc1-c1cccc(OCC(=O)O)c1 [BMS309403] | – | – | partially reversed | partially reversed | did not affect | inhibited | partially inhibited | partially reversed | inhibit | – |
| CCCCCC/C=C/C=C\CCCCCCCC(=O)O [RA, 9Z, 11E-conjugated linoleic acid] | – | enhance lipid accumulation | – | – | – | – | – | – | – | partially reversed |
